Assay results published in the NIST ThermoML archive (doi:10.1021/je200721d).

Assay: xn = mol fraction of the nth substance listed
Conditions: Liquid, Vibrating tube method

CCCCCCCCCC [decane] + CCCCCC
Conditions	mass density [kg/m3]
362.91 K, 7000 kPa, x2 = 0.0456	681.43
362.91 K, 8000 kPa, x2 = 0.0456	682.51
362.91 K, 9000 kPa, x2 = 0.0456	683.59
362.91 K, 10000 kPa, x2 = 0.0456	684.65
362.91 K, 11000 kPa, x2 = 0.0456	685.7
362.91 K, 12000 kPa, x2 = 0.0456	686.71
362.91 K, 13000 kPa, x2 = 0.0456	687.73
362.91 K, 14000 kPa, x2 = 0.0456	688.73
362.91 K, 15000 kPa, x2 = 0.0456	689.71
362.91 K, 16000 kPa, x2 = 0.0456	690.69
362.91 K, 17000 kPa, x2 = 0.0456	691.65
362.91 K, 18000 kPa, x2 = 0.0456	692.61
362.91 K, 19000 kPa, x2 = 0.0456	693.55
362.91 K, 20000 kPa, x2 = 0.0456	694.48
362.91 K, 21000 kPa, x2 = 0.0456	695.43
362.91 K, 22000 kPa, x2 = 0.0456	696.32
362.91 K, 23000 kPa, x2 = 0.0456	697.22
362.91 K, 24000 kPa, x2 = 0.0456	698.09
362.91 K, 25000 kPa, x2 = 0.0456	698.96
362.93 K, 1000 kPa, x2 = 0.7524	623.36
362.93 K, 2000 kPa, x2 = 0.7524	624.97
362.93 K, 3000 kPa, x2 = 0.7524	626.55
362.93 K, 4000 kPa, x2 = 0.7524	628.12
362.93 K, 5000 kPa, x2 = 0.7524	629.63
362.93 K, 6000 kPa, x2 = 0.7524	631.14
362.93 K, 7000 kPa, x2 = 0.7524	632.58
362.93 K, 8000 kPa, x2 = 0.7524	634.03
362.93 K, 9000 kPa, x2 = 0.7524	635.42
362.93 K, 10000 kPa, x2 = 0.7524	636.78
362.93 K, 11000 kPa, x2 = 0.7524	638.11
362.93 K, 12000 kPa, x2 = 0.7524	639.39
362.93 K, 13000 kPa, x2 = 0.7524	640.69
362.93 K, 14000 kPa, x2 = 0.7524	641.96
362.93 K, 15000 kPa, x2 = 0.7524	643.24
362.93 K, 16000 kPa, x2 = 0.7524	644.37
362.93 K, 17000 kPa, x2 = 0.7524	645.56
362.93 K, 18000 kPa, x2 = 0.7524	646.73
362.93 K, 19000 kPa, x2 = 0.7524	647.87
362.93 K, 20000 kPa, x2 = 0.7524	649
362.93 K, 21000 kPa, x2 = 0.7524	650.11
362.93 K, 22000 kPa, x2 = 0.7524	651.2
362.93 K, 23000 kPa, x2 = 0.7524	652.27
362.93 K, 24000 kPa, x2 = 0.7524	653.3
362.93 K, 25000 kPa, x2 = 0.7524	654.33
362.94 K, 1000 kPa, x2 = 0.4968	646.01
362.94 K, 2000 kPa, x2 = 0.4968	647.42
362.94 K, 3000 kPa, x2 = 0.4968	648.86
362.94 K, 4000 kPa, x2 = 0.4968	650.21
362.94 K, 5000 kPa, x2 = 0.4968	651.6
362.94 K, 6000 kPa, x2 = 0.4968	652.91
362.94 K, 7000 kPa, x2 = 0.4968	654.2
362.94 K, 8000 kPa, x2 = 0.4968	655.48
362.94 K, 9000 kPa, x2 = 0.4968	656.71
362.94 K, 10000 kPa, x2 = 0.4968	657.94
362.94 K, 11000 kPa, x2 = 0.4968	659.13
362.94 K, 12000 kPa, x2 = 0.4968	660.32
362.94 K, 13000 kPa, x2 = 0.4968	661.45
362.94 K, 14000 kPa, x2 = 0.4968	662.6
362.94 K, 15000 kPa, x2 = 0.4968	663.75
362.94 K, 16000 kPa, x2 = 0.4968	664.81
362.94 K, 17000 kPa, x2 = 0.4968	665.88
362.94 K, 18000 kPa, x2 = 0.4968	666.95
362.94 K, 19000 kPa, x2 = 0.4968	667.98
362.94 K, 20000 kPa, x2 = 0.4968	669.01
362.94 K, 21000 kPa, x2 = 0.4968	670.03
362.94 K, 22000 kPa, x2 = 0.4968	671.04
362.94 K, 23000 kPa, x2 = 0.4968	672.03
362.94 K, 24000 kPa, x2 = 0.4968	673
362.94 K, 25000 kPa, x2 = 0.4968	673.96
362.95 K, 1000 kPa, x2 = 0.2185	664.98
362.95 K, 2000 kPa, x2 = 0.2185	666.23
362.95 K, 3000 kPa, x2 = 0.2185	667.46
362.95 K, 4000 kPa, x2 = 0.2185	668.71
362.95 K, 5000 kPa, x2 = 0.2185	669.93
362.95 K, 6000 kPa, x2 = 0.2185	671.12
362.95 K, 7000 kPa, x2 = 0.2185	672.27
362.95 K, 8000 kPa, x2 = 0.2185	673.43
362.95 K, 9000 kPa, x2 = 0.2185	674.54
362.95 K, 10000 kPa, x2 = 0.2185	675.66
362.95 K, 11000 kPa, x2 = 0.2185	676.75
362.95 K, 12000 kPa, x2 = 0.2185	677.81
362.95 K, 13000 kPa, x2 = 0.2185	678.85
362.95 K, 14000 kPa, x2 = 0.2185	679.9
362.95 K, 15000 kPa, x2 = 0.2185	680.96
362.95 K, 16000 kPa, x2 = 0.2185	681.94
362.95 K, 17000 kPa, x2 = 0.2185	682.95
362.95 K, 18000 kPa, x2 = 0.2185	683.9
362.95 K, 19000 kPa, x2 = 0.2185	684.89
362.95 K, 20000 kPa, x2 = 0.2185	685.85
362.95 K, 21000 kPa, x2 = 0.2185	686.79
362.95 K, 22000 kPa, x2 = 0.2185	687.72
362.95 K, 23000 kPa, x2 = 0.2185	688.63
362.95 K, 24000 kPa, x2 = 0.2185	689.54
362.95 K, 25000 kPa, x2 = 0.2185	690.43
